Source: patent US4870097A, “Pharmaceutical use of derivatives of tryptophan” (priority 1984, dated 1989)

Experiments:
[1] = system: tolerance induced by morphine; assay: Antagonism to the development of tolerance to repeated administration of morphine HCl (tail flick); assay type: in vivo, rats
Procedure, shortened: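 Male rats, about 200-250, in groups of six, dosed every 24 h with 3 mg/kg morphine HCl i.p. plus 3 mg/kg i.p. test compound; saline-only and morphine-only groups run alongside. Pain threshold measured by tail flick at […], 30', 45' and 60' after each treatment.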

[2] = system: guinea pig gall bladder contracted with CCK-8; assay: Anti-CCK activity on guinea pig gall bladders in vitro; assay type: biochemical; settings: CCK-8 10 ng/ml, concentration antagonising 50% of contracting effect
Procedure, shortened: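 Longitudinal gall bladder strips in Krebs at 32° C, gassed with O2/CO2 95:5, were contracted with CCK-8 at 10 ng/ml and contractions recorded isometrically via force transducer. ED50 in mcg/ml is the compound concentration antagonising 50% of CCK contraction, derived by regression over at least three experiments.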

[3] = system: activity of analgesic drugs; assay: Hot plate test: potentiation of analgesic drugs; assay type: in vivo, rats
Experimental: The method is that described by Eddy et al. (J. Pharmac. Exp. Ther. 107, 385 (1953)).
Groups of five male rats having a weight of about 150 g and which have not been fasting are used.
The animals are placed on a metal plate which is on the bottom of a transparent cylinder heated to 55°±1° C. by an azeotropic boiling mixture (1:1 acetone-ethyl formate). The time which passes between the moment at which the animal is placed on the hot plate and the moment at which it licks its feet or tries to jump out of the cylinder is defined as the reaction time. The control reaction time is measured 10 and 5 minutes before the administration of the drugs and 10, 20, 30, 45, 60, 90 minutes afterwards. The animals are left on the plate for a maximum period of 30 seconds.
The response to the administration of the product is considered positive if at least a doubling of the normal reaction time is seen. The results obtained are given in Table 2 which records the groups treated, the dose administered and the stay times on the plate expressed as the number of positive responses over the number treated.

[4] = system: analgesic activity of DALA; assay: Tail Flick test: increase in the analgesic activity of DALA (i.c.v.); assay type: in vivo, rats; design: analgesic activity (Tail Flick), 10' / analgesic activity (Tail Flick), 20' / analgesic activity (Tail Flick), 30' / analgesic activity (Tail Flick), 45' / analgesic activity (Tail Flick), 60' / analgesic activity (Tail Flick), AVERAGE: scale not given here; settings: for analgesic activity (Tail Flick), AVERAGE: average 10'-60'
Experimental: In order to check one of the possible mechanisms for the action of the compounds of the invention, that is, their possible inhibition of the enzymatic degradation of endogenous enkephalins, the following experiment was carried out:
A cannula was implanted in the right lateral ventricle of male rats having a weight of 150-200 g (groups of five animals were used) in order to allow the intracerebroventricular (i.c.v.) administration of drugs according to the method of Noble et al (Life Science 6, (1970) 281-291).
The animals were subsequently treated (i.c.v.) with 3 μg of D-ala-methionine-enkephalinamide (DALA) immediately after an injection (i.c.v.) of the compounds under study at the doses given in Table 4. Analgesia was tested for by the Tail Flick method already mentioned, at the times

[5] = days 0-7, 3 mg/kg + morphine (row Morphine: alone)
[6] = oxyphenylbutazone 50 + C. 33 5 mg/kg i.p.
[7] = oxyphenylbutazone 50 + C. 33 10 mg/kg i.p.
[8] = oxyphenylbutazone 50 + C. 33 20 mg/kg i.p.

SMILES: O=C(N[C@@H](Cc1c[nH]c2ccccc12)C(=O)O)OC(c1ccccc1)c1ccccc1 [Compound 33]
- percentage variation in the latency time, day 0 ([1]; day 0, 3 mg/kg i.p. + morphine HCl 3 mg/kg i.p. (row Morphine: alone)): 50.12%
- percentage variation in the latency time, day 1 ([1]; day 1, 3 mg/kg i.p. + morphine HCl 3 mg/kg i.p. (row Morphine: alone)): 67.02%
- percentage variation in the latency time, day 2 ([1]; day 2, 3 mg/kg i.p. + morphine HCl 3 mg/kg i.p. (row Morphine: alone)): 51.47%
- percentage variation in the latency time, day 3 ([1]; day 3, 3 mg/kg i.p. + morphine HCl 3 mg/kg i.p. (row Morphine: alone)): 34.92%
- percentage variation in the latency time, day 4 ([1]; day 4, 3 mg/kg i.p. + morphine HCl 3 mg/kg i.p. (row Morphine: alone)): 67.3%
- percentage variation in the latency time, day 5 ([1]; day 5, 3 mg/kg i.p. + morphine HCl 3 mg/kg i.p. (row Morphine: alone)): 61.08%
- percentage variation in the latency time, day 6 ([1]; day 6, 3 mg/kg i.p. + morphine HCl 3 mg/kg i.p. (row Morphine: alone)): 20.02%
- percentage variation in the latency time, day 7 ([1]; day 7, 3 mg/kg i.p. + morphine HCl 3 mg/kg i.p. (row Morphine: alone)): 10.33%
- Area subtended (1) [1, 5]: 382.1 Effect-Day
- regression line % Effect versus Day [1, 5]: % Effect = - 5.38 Day + 64.12
- Area 1 / Area Morphine ([1]; rat, in vivo, 3 mg/kg): 2.72
- Anti CCK-8 activity, ED50 [2]: 76.3 µg/mL
- Positive Total X/25 [3, 6]: 17
- positive responses over the number treated, 10' [3, 6]: 3/5
- positive responses over the number treated, 20' [3, 6]: 3/5
- positive responses over the number treated, 30' [3, 6]: 4/5
- positive responses over the number treated, 45' [3, 6]: 4/5
- positive responses over the number treated, 60' [3, 6]: 3/5
- Positive Total X/25 [3, 7]: 21
- positive responses over the number treated, 10' [3, 7]: 3/5
- positive responses over the number treated, 20' [3, 7]: 5/5
- positive responses over the number treated, 30' [3, 7]: 5/5
- positive responses over the number treated, 45' [3, 7]: 5/5
- positive responses over the number treated, 60' [3, 7]: 3/5
- Positive Total X/25 [3, 8]: 22
- positive responses over the number treated, 10' [3, 8]: 4/5
- positive responses over the number treated, 20' [3, 8]: 5/5
- positive responses over the number treated, 30' [3, 8]: 5/5
- positive responses over the number treated, 45' [3, 8]: 4/5
- positive responses over the number treated, 60' [3, 8]: 4/5
- analgesic activity (Tail Flick), 10' ([4]; 10(D) + 0.001 mg/kg (ICV)): 64.12
- analgesic activity (Tail Flick), 20' ([4]; 10(D) + 0.001 mg/kg (ICV)): 77.56
- analgesic activity (Tail Flick), 30' ([4]; 10(D) + 0.001 mg/kg (ICV)): 72.7
- analgesic activity (Tail Flick), 45' ([4]; 10(D) + 0.001 mg/kg (ICV)): 45.76
- analgesic activity (Tail Flick), 60' ([4]; 10(D) + 0.001 mg/kg (ICV)): 57.38
- analgesic activity (Tail Flick), AVERAGE ([4]; 10(D) + 0.001 mg/kg (ICV)): 63.50 ± 5.63
- analgesic activity (Tail Flick), 10' ([4]; 10(D) + 0.01 mg/kg (ICV)): 81.48
- analgesic activity (Tail Flick), 20' ([4]; 10(D) + 0.01 mg/kg (ICV)): 100.00
- analgesic activity (Tail Flick), 30' ([4]; 10(D) + 0.01 mg/kg (ICV)): 80.22
- analgesic activity (Tail Flick), 45' ([4]; 10(D) + 0.01 mg/kg (ICV)): 59.24
- analgesic activity (Tail Flick), 60' ([4]; 10(D) + 0.01 mg/kg (ICV)): 55.88
- analgesic activity (Tail Flick), AVERAGE ([4]; 10(D) + 0.01 mg/kg (ICV)): 75.36 ± 8.08
